The results in this text go back to patent US20230320345A1, “METHODS AND COMPOSITIONS FOR INHIBITING ICE RECRYSTALLIZATION” (UNIVERSITY OF TENNESSEE RESEARCH FOUNDATION, priority 2022, published 2023).

Where “and” joins values, the source holds several entries; their conditions need not be identical. Equal values may be shown once. Entries after “also recorded” stand apart in the source; their conditions may differ.

A short description of data set [1]: Optical photos of bile salt solutions as a function of temperature, with crossed polarized filters. The class given is physicochemical. Particulars: 25 mM in PBS; for appearance of solution: temperatures from 90° C. to -15° C.; for liquid crystal phase: all temperatures, crossed polarized filter. How it is done: (§1) Viscosity profiles, critical micelle concentration (CMC), and optical photos of bile salts. The critical micelle concentration of a colloid or surfactant is the concentration of surfactant above which micelles form, and any additional surfactant added to the system will form micelles. The viscosity profile of NaC, NaDC, NaCC, and NaLC at a concentration of 25 mM in 1x PBS were determined by an AR2000 rheometer from TA Instruments in New Castle, PA, with a 40 mm aluminum parallel plate at 25° C. The samples were measured from 0.1 to100 s^-1 shear rate after pre-shearing at 50 s^-1 for 30 seconds with or without an equilibrium time of 30 min. The CMCs were determined by a UV-vis spectroscopy method with slight modifications described in Reis, S.; Moutinho, C. G.; Matos, C.; de Castro, B.; Gameiro, P.; Lima, J. L., “Noninvasive methods to determine the critical micelle concentration of some bile acid salts,” Anal Biochem 2004, 334 (1), 117-26, which is incorporated herein by reference. NaC, NaDC, and NaCC were dissolved in water at concentrations from 1 to 25 mM. The absorbance spectra from 200 to 300 nm were collected by an Evolution 201 spectrometer from Thermo Scientific, Waltham, MA to find the peak absorbance. The CMC was determined from the sudden change of peak absorbance as concentration increases. The optical photos of bile salt in 1X PBS solutions were taken after incubation at each designed temperature for 20 minutes.

Data set [2] in a line: Ice recrystallization inhibition (IRI) "splat" assay. The conditions noted are these: concentrations close to or below literature CMC value, PBS (FIG. 6D).
The nature of data set [3]: Ice growth kinetics of NaLC. Particulars: 1x PBS, -8° C., up to 60 min. As to the method: Ice growth kinetics of NaLC. The ice growth kinetics in the presence of NaLC at 12.5, 25, and 50 mM was determined at -8° C. in 1x PBS. Five pictures were taken every 5 min for a total time of 60 min. %MLGS at each time was calculated against its blank control at the same time.

Data set [4] is described as follows: Atomic force microscopy (AFM) analysis of bile salt solutions. Type of data set: physicochemical. Particulars: 25 mM sample, dried on mica. How it is done: Atomic force microscopy (AFM) analysis of bile salt solutions. The AFM procedure was followed as set forth in Schefer, L.; Adamcik, J.; Diener, M.; Mezzenga, R., “Supramolecular chiral self-assembly and supercoiling behavior of carrageenans at varying salt conditions,” Nanoscale 2015, 7 (39), 16182-16188, which is incorporated herein by reference. Briefly, 0.01% (v/v) APTES in water was incubated on a freshly peeled mica surface for 1 min. APTES solution was then washed away using water on a P6700 spin coater from Specialty Coating Systems Inc., Indianapolis, IN, at 2,000 rpm. About 200 µL of 25 mM sample was loaded on the mica surface and incubated for 30 seconds. Then the mica was rinsed with 1.0 mL water drop-wise and dried in a vacuum chamber at room temperature. All mica surfaces were observed by a Multimode VIII AFM from Bruker, Santa Barbara, USA, in ScanAsyst-Air mode. All images were flattened using Nanoscope Analysis software from Bruker, Santa Barbara, USA, before analyzing by an ImageJ instrument from National Institutes of Health, Bethesda, MD.

A short description of data set [5]: Ice recrystallization inhibition (IRI) "splat" assay. The conditions noted are these: for IRI activity: splat assay, 30 min incubation at -8° C., 12.5-100 mM; for %MLGS compared with PEG: at 40 mg/mL. As to the method:
Ice recrystallization inhibition (IRI) activity of bile salts. NaC, NaDC, NaCC, and NaLC were tested for IRI activity at concentrations of 12.5, 25.0, 50.0, and 100 mM in 1x PBS using the “splat” assay test known and described in Knight, C. A.; Hallett, J.; Devries, A. L., “Solute effects on ice recrystallization: An assessment technique,” Cryobiology 1988, 25 (1), 55-60, which is incorporated herein by reference. 100 mM NaLC was not tested due to its gelation. A droplet of the sample was gently squeezed out of a syringe with a 21-gauge needle from Exelint, Redondo Beach, CA, and was dripped from 1.4 m above onto a microscope slide sitting on a metal block surrounded by dry ice. Upon hitting the slide surface, the droplet instantaneously froze into an ice wafer. The ice wafer was immediately transferred into the chamber of a cryostage system from Instec, Boulder, CO, for incubation. Pictures were taken after 30 min incubation at -8° C. by a BX51 polarized microscope from Olympus, Tokyo, Japan, equipped with a DP70 camera from Olympus. PEG was tested as a negative control at concentrations of 5, 10, 20, and 40 mg/mL in 1x PBS to match the mass concentrations (w/v) of bile salts. PVA was tested as a positive control at low concentrations, including 0.05, 0.10, 0.20, and 0.40 mg/mL in 1x PBS, because of its high IRI activity. The largest lengths of the five largest ice crystals in one picture were measured by Image J software from National Institutes of Health, Bethesda, MD. Each sample was performed in triplicate. Each replication had five pictures randomly selected, representing a total of 75 ice crystals for each sample. The percent mean largest grain size (%MLGS) was calculated by averaging three replications divided by the blank. Data are reported as the mean ± standard derivation of three replications. The %MLGS calculations are plotted in FIG. 3 against the concentrations of the bile acids and the controls.

Data set [6] can be described thus: Viscosity profile by rheometer / gel formation. Type of data set: physicochemical. The conditions noted are these: for viscosity: 25 mM in 1x PBS, 25° C. How it is done: as §1

Consider `C[C@H](CCC(=O)[O-])[C@H]1CC[C@H]2[C@@H]3CC[C@@H]4C[C@H](O)CC[C@]4(C)[C@H]3CC[C@]12C.[Na+]` [NaLC, sodium lithocholate], for which the appearance of solution entry in data set [1] was “turbid”. Further, the “IRI activity (%MLGS)” value in data set [2] is “No IRI activity was observed”. The ice growth result in data set [3] (12.5 mM) is listed as “IRI active but did not stop the ice growth completely”. Also, the ice growth result in data set [3] (25.0 mM) was “completely stopped the growth of ice crystals; also recorded: block the growth of ice crystals”. For the same molecule, the ice growth result in data set [3] (50.0 mM) is “completely stopped the growth of ice crystals”. In data set [4], the “helical structure by AFM” value is “helical structure”, the helix length was found to be 1.72 ± 0.37 µm, the helix turn was found to be 0.19 ± 0.04 µm and the helix width is recorded as 0.14 ± 0.01 µm. In addition, in data set [5] (10 mg/mL (25 mM), 30 min at -8° C.), the “ice crystal size compared to blank 1x PBS and negative control PEG” value was “significantly smaller ice crystals”. Moreover, the “ice crystal sizes compared with positive control PVA” value in data set [5] (10 mg/mL NaLC, 1x PBS, 30 min at -8° C.) is “comparable to those in the positive control of 1 mg/mL PVA”. Also, the “concentration at which IRI active” value in data set [5] (1x PBS, 30 min at -8° C.) is “around 10 mg/mL and ~25 mM”. Further, the IRI activity result in data set [5] (1x PBS) is given as “relatively potent IRI; also recorded: most potent ice recrystallization inhibitor”. For the same molecule, the gel formation result in data set [6] (100 mM, after sample preparation) is reported as “gel was formed”. In data set [6] (fresh-prepared), the viscosity entry is listed as “highest viscosity among four bile salts”.
Regarding sodium deoxycholate [NaDC], in data set [1], the appearance of solution entry is “clear”. Also, in data set [5] (1x PBS, 30 min at -8° C.), the “%MLGS compared with PEG” value was “smaller %MLGS values than PEG”. In addition, in data set [5] (1x PBS), the IRI activity entry is “weak ice recrystallization inhibitors”. Moreover, the viscosity entry in data set [6] (after 30-min equilibrium) is reported as “increased significantly to a level similar to that of NaLC”.
On to `C[C@H](CCC(=O)[O-])[C@H]1CC[C@H]2[C@@H]3[C@H](O)C[C@@H]4C[C@H](O)CC[C@]4(C)[C@H]3C[C@H](O)[C@]12C.[Na+]` [NaC, sodium cholate], for which, in data set [1], the “temperature at which ices were formed” value was -15 °C, the liquid crystal phase result was “no liquid crystal phase was observed” and the appearance of solution entry is listed as “clear”. For the same molecule, the IRI activity result in data set [5] (1x PBS) is given as “not IRI active”.
As for `C[C@H](CCC(=O)[O-])[C@H]1CC[C@H]2[C@@H]3[C@H](O)C[C@@H]4C[C@H](O)CC[C@]4(C)[C@H]3CC[C@]12C.[Na+]` [NaCC, sodium chenodeoxycholate], in data set [1], the “temperature at which ices were formed” value is -15 °C, the liquid crystal phase entry is on record as “no liquid crystal phase was observed” and the appearance of solution entry was “clear”. Moreover, the “%MLGS compared with PEG” value in data set [5] (1x PBS, 30 min at -8° C.) is on record as “smaller %MLGS values than PEG”. Besides, the IRI activity entry in data set [5] (1x PBS) is “weak ice recrystallization inhibitor”.
